Assays:
[1] = human liver microsomes
[2] = test system: U87 MG/M human glioblastoma xenografts; conditions: each dose, for the duration of the xenograft study
[3] = Human hepatocyte stability; format: in vitro ADME; conditions: human hepatocytes

| Structure (SMILES) | HLM Clhep [1] [mL/min/kg] | tolerability [2] | HH Clhep [3] [mL/min/kg] |
| --- | --- | --- | --- |
| COC(C)(C)c1cc2nc(-c3cnc(N)nc3)nc(N3CCOCC3)c2s1 [Compound 1, reference compound] | 10.4 | – | – |
| CC1(C)OCCn2c1nc1c(N3CCOCC3)nc(-c3cnc(N)nc3)nc12 [Compound 16, GDC-0084] | 5.0 | well tolerated | 1.0 |
| Cc1nc(N)ncc1-c1nc(N2CCOCC2)c2nc(C(C)(C)O)n(CCO)c2n1 [Compound 4] | 2.8 | – | – |
| COC1(c2sc3c(N4CCOCC4)nc(-c4cnc(N)nc4)nc3c2C)COC1 [Compound 2, reference compound] | 9.8 | – | – |
| Cc1nc(N)ncc1-c1nc(N2CCOCC2)c2nc3n(c2n1)CCOC3(C)C [Compound 15] | 3.1 | – | 1.2 |

Reference: publication PMC4834666 (ACS Medicinal Chemistry Letters, 2016)
